# According to patent publication US20250381157A1, “ANTIMICROBIAL COMPOUNDS” (priority 2022, published 2025):
# Molecular target: T1, recombinant human HDAC6 (Homo sapiens, UniProt Q9UBN7)
# T1 construct: purchased BPS 50006
# T1 sequence (Q9UBN7 1-1215): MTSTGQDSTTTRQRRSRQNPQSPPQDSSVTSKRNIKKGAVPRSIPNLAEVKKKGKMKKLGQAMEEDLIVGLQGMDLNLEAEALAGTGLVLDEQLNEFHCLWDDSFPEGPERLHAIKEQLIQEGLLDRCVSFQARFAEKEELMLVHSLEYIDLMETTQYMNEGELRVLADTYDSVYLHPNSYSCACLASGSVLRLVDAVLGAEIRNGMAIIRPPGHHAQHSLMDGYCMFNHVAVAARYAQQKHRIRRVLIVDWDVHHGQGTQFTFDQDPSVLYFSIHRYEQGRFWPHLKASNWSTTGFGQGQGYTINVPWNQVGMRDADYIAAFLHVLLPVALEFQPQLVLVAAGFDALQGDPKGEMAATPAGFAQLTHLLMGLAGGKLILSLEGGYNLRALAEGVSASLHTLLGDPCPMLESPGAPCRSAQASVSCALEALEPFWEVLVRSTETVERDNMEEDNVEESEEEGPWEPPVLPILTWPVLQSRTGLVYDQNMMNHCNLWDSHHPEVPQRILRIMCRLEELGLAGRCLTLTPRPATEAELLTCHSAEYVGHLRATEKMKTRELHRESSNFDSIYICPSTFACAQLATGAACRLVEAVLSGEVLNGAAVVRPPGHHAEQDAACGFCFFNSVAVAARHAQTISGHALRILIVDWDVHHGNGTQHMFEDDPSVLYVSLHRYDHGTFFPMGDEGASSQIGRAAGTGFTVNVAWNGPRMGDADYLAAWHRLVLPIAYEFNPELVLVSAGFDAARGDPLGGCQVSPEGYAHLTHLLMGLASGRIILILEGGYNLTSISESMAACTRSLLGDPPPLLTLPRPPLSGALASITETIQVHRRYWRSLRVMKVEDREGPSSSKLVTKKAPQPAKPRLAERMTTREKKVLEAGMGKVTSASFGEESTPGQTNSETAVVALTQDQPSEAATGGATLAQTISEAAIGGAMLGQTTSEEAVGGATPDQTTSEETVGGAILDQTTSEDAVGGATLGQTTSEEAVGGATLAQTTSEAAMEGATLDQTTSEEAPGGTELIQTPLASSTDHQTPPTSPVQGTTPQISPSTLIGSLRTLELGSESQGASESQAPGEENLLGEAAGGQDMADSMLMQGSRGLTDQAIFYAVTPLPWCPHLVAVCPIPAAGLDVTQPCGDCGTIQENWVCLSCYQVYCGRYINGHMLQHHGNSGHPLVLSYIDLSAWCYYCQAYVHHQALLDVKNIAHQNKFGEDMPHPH
# Assay: HDAC6 in-vitro enzymatic assay
# Format: biochemical
# Experimental: The purpose of the study is to determine the effects of Compound 1 on the enzymatic activities of recombinant human HDAC1, HDAC2, HDAC3, HDAC4, HDAC5, HDAC6, HDAC7, HDAC8, and HDAC9 using in-vitro enzymatic assays.
# All of the compounds were dissolved in DMSO. A series of dilutions of the compounds were prepared with 10% DMSO in HDAC assay buffer and 5 μl of the dilution was added to a 50 μl reaction so that the final concentration of DMSO was 1% in all of reactions. The compounds were pre-incubated in duplicate at RT for 30 minutes in a mixture containing HDAC assay buffer, 5 μg BSA, HDAC enzyme and a test compound. After 30 minutes, the enzymatic reactions were initiated by the addition of HDAC substrate to a final concentration of 20 μM or 2 μM. The enzymatic reaction proceeded for 30 minutes at 37° C. […] Fluorescence intensity was measured at an excitation of 360 nm and an emission of 460 nm using a Tecan Infinite M1000 microplate reader.
# HDAC activity assays were performed in duplicates at each concentration. The fluorescent intensity data were analyzed using the computer software, Graphpad Prism. […] The percent activity in the presence of each compound was calculated according to the following equation: % activity=(F−Fb)/(Ft−Fb), where F=the fluorescent intensity in the presence of the compound. […] The IC50 value was determined by the concentration causing a half-maximal percent activity.
structure (smiles),measurement,setting,value
"C#CCOCC(=O)Nc1ccc(C(=O)Nc2ccccc2N)cc1 [Compound 1, N-(2-aminophenyl)-4-{2-[(prop-2-yn-1-yl)oxy]acetamido}benzamide]",IC50,,> 200 µM
same,Inhib. HDAC6,@ 200 μM,No Inhib. @ 200 μM
